We go through 49 compounds from patent US11447486B2, “2-amino-benzimidazole derivatives and their use as 5-lipoxygenase and/or prostaglandin E synthase inhibitors” (INSTITUT PASTEUR KOREA, priority 2014, dated 2022).

The structures appear in SMILES notation.

One test addresses T1, human 5-LOX (Homo sapiens, UniProt P09917).
T1 construct: purchased Cayman 60402; host or cells: insect cells (lysate)
T1 sequence (P09917 1-674): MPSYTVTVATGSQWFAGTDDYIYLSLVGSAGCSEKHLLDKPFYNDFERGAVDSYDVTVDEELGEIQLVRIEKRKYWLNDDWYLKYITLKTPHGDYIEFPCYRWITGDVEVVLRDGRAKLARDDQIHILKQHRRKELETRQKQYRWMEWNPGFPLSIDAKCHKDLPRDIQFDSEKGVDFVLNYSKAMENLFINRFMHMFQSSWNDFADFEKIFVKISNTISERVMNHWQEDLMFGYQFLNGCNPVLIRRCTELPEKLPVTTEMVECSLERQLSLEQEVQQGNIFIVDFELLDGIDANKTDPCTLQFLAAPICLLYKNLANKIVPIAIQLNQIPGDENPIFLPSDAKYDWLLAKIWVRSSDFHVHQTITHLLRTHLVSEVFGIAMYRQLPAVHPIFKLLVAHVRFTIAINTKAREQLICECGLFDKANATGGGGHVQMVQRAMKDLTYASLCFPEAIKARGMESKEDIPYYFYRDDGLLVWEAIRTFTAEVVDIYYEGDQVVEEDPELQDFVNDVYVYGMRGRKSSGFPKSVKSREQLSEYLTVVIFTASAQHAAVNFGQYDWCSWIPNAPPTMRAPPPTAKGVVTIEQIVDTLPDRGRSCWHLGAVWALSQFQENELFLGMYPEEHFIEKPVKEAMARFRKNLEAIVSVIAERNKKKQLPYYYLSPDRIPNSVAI
The experiment in a line: 5-LOX enzyme activity, fluorescence method (5-HPETE, H2DCFDA). As to conditions: read-out: 5-LO (IC50). The format is biochemical. The procedure: The activity of compounds against 5-LOX were determined by measuring LTB4 (leukotriene B4) levels and/or by a fluorescence method. Both approaches are outlined in more detail below;
The compound, in a dose response manner(0.5 nM to 10 uM), and enzyme mixture was pre-incubated for 5 minutes, and the enzymatic reaction was initiated by addition of ATP and arachidonic acid to a final concentration of 100 uM and 3 uM, respectively. […] All steps were carried out at room temperature.

In test [1] the test system is Rat basophilic leukemia (RBL) cells. The experiment in a line: LTB4 secretion assay in RBL (rat basophilic leukemia cells). In kind it is cell-based. As to conditions: Rattus norvegicus, RBL. As to the method: Rat basophilic leukemia (RBL) cells (ATCC, Cat #CRL-2256) were maintained in EMEM (ATCC, Cat #30-2003) supplemented with 15% FBS. The day before RBL assay, cells were seeded at a concentration of 2×10^4 cells per well in 96-well plates. The media was replaced with 100 ul of EMEM supplemented with 0.5% FBS and compounds in dose response(5 nM to 100 uM) were added. After 15 min of pre-incubation at 37° C., arachidonic acid and calcium ionophore (A23187) were added to give a final concentration of 2.5 uM and 5 uM, respectively. After a further 10 min incubation at 37° C., culture supernatant was transferred and quantification of LTB4 was done with a Leukotriene B4 EIA kit (Cayman, Cat #520111) as instructed.

For `Nc1ccc2[nH]c(NCc3ccc(N4CCC(Oc5ccc(Cl)cc5)CC4)cc3)nc2c1` [Compound 2], the 50% inhibitory concentration (IC50) – broadly, the concentration that gives 50% inhibition – on human 5-LOX is < 1 µM. Same read-out and setting: then `Nc1nc2ccc(Nc3n[nH]cc3C(=O)NC3CCCC3)cc2n1CCOc1ccc(OC(F)(F)F)cc1` [Compound 18], with 1 to 10 µM; and `O=C(NC1CCCC1)c1c[nH]nc1Nc1ccc2[nH]c(NCc3ccc(Oc4ccc(Cl)cc4)cc3)nc2c1` [Compound 19], with < 1 µM. As to `Nc1ccc2[nH]c(NC(=O)c3ccc(F)cc3)nc2c1` [Compound 26], in test [1], the EC50 (commonly the concentration needed to bring the measured effect to its halfway point) is > 20 µM. In addition, on human 5-LOX, the IC50 lay within 1 to 10 µM. The compound `Nc1ccc2[nH]c(NCc3ccc(F)cc3)nc2c1` [Compound 28] returned an EC50 in test [1] of 10 to 20 µM. Besides, at human 5-LOX, the IC50 was < 1 µM. Regarding `Fc1ccc(CNc2nc3cc(NCc4cnc[nH]4)ccc3[nH]2)cc1` [Compound 29], in test [1], the EC50 is < 10 µM. The IC50 at human 5-LOX was < 1 µM. On the same counts, the results for `CC(C)(CO)Nc1ccc2[nH]c(NCc3ccc(Cl)cc3F)nc2c1` [Compound 31] are > 20 µM and < 1 µM. Regarding `Fc1ccc(CCNc2nc3cc(NC4COC4)ccc3[nH]2)cc1` [Compound 33], the EC50 in test [1] is < 10 µM. Moreover, the IC50 at human 5-LOX is < 1 µM. With `Cn1c(N2CCC(Oc3ccc(F)cc3)CC2)nc2cc(N)ccc21` [Compound 35], the EC50 in test [1] was > 20 µM. Further, the IC50 on human 5-LOX was in the range of 1 to 10 µM. On the same counts, the results for `Fc1ccc(OC2CCN(c3nc4cc(NC5COC5)ccc4[nH]3)CC2)cc1` [Compound 36] are 10 to 20 µM and < 1 µM. `CN(C)c1nc2ccc(N)cc2n1CCOc1ccc(Cl)cc1` [Compound 39] returned an EC50 in test [1] of 10 to 20 µM. Besides, at human 5-LOX, the IC50 was < 1 µM. The matching figures for `CN(C)c1nc2ccc(NC3COC3)cc2n1CCOc1ccc(Cl)cc1` [Compound 40]: 10 to 20 µM and < 1 µM. The matching figures for `CN(C)c1nc2cc(NC3COC3)ccc2n1CCOc1ccc(Cl)cc1` [Compound 41]: 10 to 20 µM and 1 to 10 µM. The matching figures for `CN(C)c1nc2ccc(Nc3ccn(C)n3)cc2n1CCOc1ccc(OC(F)(F)F)cc1` [Compound 45]: < 10 µM and > 10 µM. For `CN(C)c1nc2cc(Nc3ccn(C)n3)ccc2n1CCOc1ccc(OC(F)(F)F)cc1` [Compound 46], the EC50 in test [1] was < 10 µM. Also, the IC50 on human 5-LOX was > 10 µM. On the same counts, the results for `CCN(CC)c1nc2cc(N)ccc2n1CCc1ccc(F)cc1` [Compound 47] are > 20 µM and > 10 µM.

In test [1], `Nc1ccc2c(c1)nc(N1CCCC1)n2CCc1ccc(F)cc1` [Compound 50] registered an EC50 of 10 to 20 µM. Also, the IC50 at human 5-LOX was in the range of 1 to 10 µM.

Regarding `Cn1c(NCCOc2ccc(Cl)c(Cl)c2)nc2ccc(N)cc21` [Compound 60], the EC50 in test [1] is < 10 µM. The IC50 at human 5-LOX is < 1 µM.

Consider `Cn1c(NCCOc2ccc(Cl)c(Cl)c2)nc2cc(N)ccc21` [Compound 61], for which, in test [1], the EC50 lay within 10 to 20 µM. Moreover, the IC50 at human 5-LOX is < 1 µM.

Regarding `Nc1nc2ccc(N3CCC(Oc4ccc(OC(F)(F)F)cc4)C3)cc2[nH]1` (centres unmarked) [Compound 63], in test [1], the EC50 lay within 10 to 20 µM. Also, the IC50 at human 5-LOX is < 1 µM.

As for `Nc1ccc2[nH]c(N3CCC(C(=O)Nc4ccc(OC(F)(F)F)cc4)C3)nc2c1` (centres unmarked) [Compound 64], in test [1], the EC50 is > 20 µM. Further, the IC50 on human 5-LOX is < 1 µM. On to `CC(C)(C)Nc1nc2cc(N)ccc2n1CC(=O)Nc1ccc(OC(F)(F)F)cc1` [Compound 69], for which the EC50 in test [1] is < 10 µM. Further, the IC50 on human 5-LOX lay in the range of 1 to 10 µM.

Turning to `Nc1ccc2[nH]c(N3CCC(Oc4ccc(OC(F)(F)F)cc4Cl)C3)nc2c1` (centres unmarked) [Compound 71], the EC50 in test [1] is 10 to 20 µM. Moreover, the IC50 on human 5-LOX was < 1 µM. On the same counts, the results for `Nc1cnc2c(c1)nc(N1CCCC1)n2CCOc1ccc(OC(F)(F)F)cc1` [Compound 72] are > 20 µM and > 10 µM. The matching figures for `Cn1c(N2CCC(C(=O)Nc3ccc(OC(F)(F)F)cc3)C2)nc2ncc(N)cc21` (centres unmarked) [Compound 76]: > 20 µM and < 1 µM. As to `Nc1ccc2nc(-n3cc(F)cn3)n(CCOc3ccc(OC(F)(F)F)cc3)c2c1` [Compound 78], the EC50 in test [1] was in the range of 10 to 20 µM. In addition, on human 5-LOX, the IC50 was > 10 µM. Turning to `Nc1ccc2c(c1)nc(-n1cc(F)cn1)n2CCOc1ccc(OC(F)(F)F)cc1` [Compound 82], the EC50 in test [1] was 10 to 20 µM. Besides, the IC50 on human 5-LOX is > 10 µM.

In the case of `Nc1cnc2nc(N3CCCC3)n(CCOc3ccc(OC(F)(F)F)cc3)c2c1` [Compound 83], the EC50 in test [1] is > 20 µM. Further, the IC50 at human 5-LOX lay within 1 to 10 µM.

`FC(F)(F)Oc1ccc(OCCn2c(N3CCCC3)nc3ccc(N4CCC4)cc32)cc1` [Compound 84]: the EC50 in test [1] was < 10 µM. Further, the IC50 at human 5-LOX is < 1 µM.

Consider `FC(F)(F)Oc1ccc(OCCn2c(N3CCCC3)nc3cc(N4CCC4)ccc32)cc1` [Compound 85], for which the EC50 in test [1] was > 20 µM. Further, at human 5-LOX, the IC50 lay within 1 to 10 µM. The matching figures for `Nc1cc(Cl)c2nc(N3CCCC3)n(CCOc3ccc(OC(F)(F)F)cc3)c2c1` [Compound 89]: > 20 µM and < 1 µM.

`c1ccc(Oc2ccc(CNc3nc4cc(NC5CCC5)ccc4[nH]3)cc2)cc1` [Compound 96]: the EC50 in test [1] was < 10 µM. The half-maximal inhibitory concentration (IC50) at human 5-LOX is < 1 µM. On the same counts, the results for `Nc1ccc2nc(N3CCC(F)(F)C3)n(CCOc3ccc(OC(F)(F)F)cc3)c2c1` [Compound 100] are < 10 µM and < 1 µM. The matching figures for `CCC(Nc1nc2cc(N)ccc2[nH]1)c1ccc(Oc2ccc(Cl)cc2)cc1` (centres unmarked) [Compound 124]: < 10 µM and < 1 µM.

As to `CC(Nc1ccc2[nH]c(N(C)C)nc2c1)c1ccc(Oc2ccc(Cl)cc2)cc1` (centres unmarked) [Compound 131], the EC50 in test [1] is < 10 µM. In addition, the IC50 on human 5-LOX was < 1 µM. On the same counts, the results for `O=S(=O)(c1ccc(Cl)cc1)c1ccc(CNc2nc3cc(NC4COC4)ccc3[nH]2)cc1` [Compound 133] are 10 to 20 µM and < 1 µM. On the same counts, the results for `CC(CC(F)(F)F)Nc1ccc2[nH]c(NCc3ccc(Oc4ccc(Cl)cc4)cc3)nc2c1` (centres unmarked) [Compound 134] are < 10 µM and < 1 µM. For the compound `Nc1ccc2nc(NCc3ccc(C(O)c4ccccn4)cc3)[nH]c2c1` (centres unmarked) [Compound 139], the EC50 in test [1] is > 20 µM. For the same compound, at human 5-LOX, the IC50 was < 1 µM.

As for `CC(Cc1ccc(Cl)cc1Cl)Nc1nc2ccc(N)cc2n1Cc1ccccc1` (centres unmarked) [Compound 140], the EC50 in test [1] was < 10 µM. In addition, at human 5-LOX, the IC50 was < 1 µM.

Regarding `Nc1ccc2nc(NCc3ccc(C(=O)c4ccccn4)cc3)[nH]c2c1` [Compound 141], the concentration giving a half-maximal response (EC50) in test [1] was > 20 µM. The IC50 on human 5-LOX is < 1 µM. On the same counts, the results for `FC(F)(F)Oc1ccc(OC2CCN(c3ccc4nc(NCCCN5CCOCC5)[nH]c4c3)C2)cc1` (centres unmarked) [Compound 142] are 10 to 20 µM and < 1 µM. The matching figures for `FC(F)(F)Oc1ccc(OC2CCN(c3ccc4nc(NCCN5CCOCC5)[nH]c4c3)C2)cc1` (centres unmarked) [Compound 143]: 10 to 20 µM and < 1 µM. The compound `CC(Cc1ccc(Cl)cc1Cl)Nc1nc2cc(N)ccc2n1Cc1ccccc1` (centres unmarked) [Compound 144] registered an EC50 in test [1] of 10 to 20 µM. For the same compound, the IC50 on human 5-LOX was < 1 µM.

Compound `COc1cc2[nH]c(NCc3ccc(Oc4ccc(Cl)cc4)cc3)nc2cc1N` [Compound 146] gave an EC50 in test [1] of 10 to 20 µM. Further, the IC50 at human 5-LOX is < 1 µM.

In test [1], `Nc1ccc2nc(NCc3ccc4cc(Cl)ccc4n3)[nH]c2c1` [Compound 156] yielded a 50% effective concentration (EC50) of 10 to 20 µM. Also, the IC50 at human 5-LOX is < 1 µM. On the same counts, the results for `Cn1c(N2CCC(c3ccc(OC(F)(F)F)cc3)CC2)nc2ccc(N)cc21` [Compound 157] are > 20 µM and < 1 µM. Take `Nc1ccc2nc(NCc3ccc4cccnc4c3)[nH]c2c1` [Compound 159]: in test [1], the EC50 is > 20 µM. The IC50 on human 5-LOX is < 1 µM. On to `Nc1ccc2nc(NCc3ccc4c(c3)NCCC4)[nH]c2c1` [Compound 162], for which the EC50 in test [1] is < 10 µM. In addition, the IC50 at human 5-LOX was < 1 µM.

As to `Cn1c(N2CCC(COc3ccc(Cl)cc3)CC2)nc2ccc(N)cc21` [Compound 163], the EC50 in test [1] is > 20 µM. For the same compound, at human 5-LOX, the IC50 is < 1 µM.
